Among the data in a melting point compilation (Tetko et al.; mined from patent text by program, amines drawn as free bases though some values may be those of a salt) are melting point values, retold here.

What is called melting point is the temperature, or range, at which the solid turns liquid.

Consider `Cc1ccc(-c2ccc(C(=O)Nc3ccc4cc(CN5C(C)(C)CCCC5(C)C)ccc4c3)cc2)cc1`, for which the melting point fell in the range of 235 to 237 °C.
Take `c1ccc(-c2nc(-c3ccc4c(c3)OCO4)c3cc4c(cc3n2)OCO4)cc1`: the melting point fell in the range of 225 to 230 °C.
The compound `COc1cc(OC)nc(NC(=O)N=NS(=O)(=O)C2SCC(=O)N2C)n1` (stereo not given) gave a melting point of 200 to 201 °C.
With `COc1ccc2c(c1)CCC1CC(=O)NN=C21` (stereo not given), the melting point turned out to be 198 °C.
With `CC1=CC(O)C(O)C(C)(C)CC1O` (stereo not given), the melting point is 138 to 139 °C.
On to `COCCN1CCc2ccc(Nc3ncc(Cl)c(N[C@@H]4CCC[C@H]4NS(C)(=O)=O)n3)cc2CC1` (relative stereo), for which the melting point amounted to 74 °C.
Consider `CCOC(=O)c1ccc(C(=O)c2ccc(N)cc2)cc1`, for which the melting point was determined as 125 °C.
Regarding `CCCCCCCCCCCCCCCCCCCCOC(=O)Cl`, the melting point is 33 to 34 °C.
As for `Cc1ccccc1-c1c(C(=O)N(C)Cc2cc(C(F)(F)F)cc(C(F)(F)F)c2)n(C)c(=O)c2cccnc12`, the melting point was 183 to 185 °C.
Turning to `C[C@]12CCC(=O)N[C@@H]1CCc1cc(Sc3cccc(F)c3)ccc12`, the melting point was 154 to 156 °C.
Regarding `Cc1c(CN2CCN(c3cccc(Cl)c3)C2=O)ncn1C(c1ccccc1)(c1ccccc1)c1ccccc1`, the melting point is 189 to 191 °C.
In the case of `COc1cccc2c1CC(C(=O)O)N2S(=O)(=O)c1ccc(-c2ccc(F)cc2Cl)cc1` (stereo not given), the melting point is 137 to 138 °C.
With `CCCCCCCCCCCC(CC1OC(=O)C1CCCCCC)OC(=O)C(N)CC(C)C` (stereo not given) the figure was 27 to 30 °C.
As to `COc1cc2ncnc(-c3cn(S(C)(=O)=O)c4ccccc34)c2cc1OC`, the melting point was over 220 °C.
`CCOC(=O)C1=C(C)NC(O)(C(F)(F)F)C(C(=O)OCC)C1c1cccc([N+](=O)[O-])c1` (stereo not given): the melting point was in the range of 120 to 121 °C.
With `O=C(CCC#Cc1ccccn1)Nc1ccccc1F` the figure was 82 to 84 °C; with `CCn1c(-c2ccccc2)c(C2=CCC(C(=O)O)(C(=O)O)CC2)c2ccccc21`, 111 to 112 °C; with `Cc1onc(-c2ccccc2)c1-c1ccc(S(C)(=O)=O)cc1`, 54 to 56 °C.
For `Cc1nc(NC(=O)CCCc2ccccc2)sc1C(=O)NCc1ccccc1`, the melting point lay in the range of 45 to 46 °C.
`Cc1nc(Cn2c(=O)sc3cc(F)ccc32)no1` returned a melting point of 142 to 144 °C.
With `O=C1NC(c2ccccc2)=N/C1=C\c1c[nH]c2ncc(Cl)cc12` the figure was 250 °C; with `Nc1nc2c(ncn2CCC(COCc2ccccc2)COCc2ccccc2)c(=O)[nH]1`, 210 to 224 °C.
`COc1cc(C)cc2nc(S(=O)(=O)Nc3c(Cl)cccc3Cl)nn12`: the melting point is 269 to 270 °C.
Regarding `CC(C)(C)C1=C(c2cc(O)c3nc(-c4ccccc4)oc3c2)OCC1(C)C`, the melting point fell in the range of 160 to 161 °C.
With `CCOC(=O)C1=COc2cc(OC(C)=O)ccc2O1` the figure was 88 °C; with `Cc1cc(C)c2c(c1C)OC(C)(C)C2c1ccc(F)cc1` (stereo not given), 109 to 110 °C.
`CC(=O)OC1CCC2(C)C3CCC4(C)C(C(C)CCCC(C)(C)O)CCC4C3CCC2(O)C1` (stereo not given) came in with a melting point of 180 to 182 °C.
On to `Nc1nc(-c2ccccc2OCC(F)(F)F)[nH]c(=O)c1N=O`, for which the melting point is 210 to 212 °C.
For the compound `O=C(C#Cc1ccncc1)c1ccccc1`, the melting point fell in the range of 74 to 75 °C.
In turn, `CCCCOC(=O)c1ccc(C(C(N)=O)C(C)c2ccccc2N2CCCCC2)cc1` (stereo not given) returned a melting point of 148 °C.
`CC(Cn1ccnc1)Cn1c(=O)c2ccc(Cl)cc2n(C)c1=O` (stereo not given) yielded a melting point of 206 to 209 °C.
On to `CC(=O)C=Cc1cccc(N(C)C)c1`, for which the melting point was in the range of 47 to 49 °C.
Compound `O=C1CCC(c2ccc3[nH]c(-c4ccccc4)cc3c2)=NN1` gave a melting point of 270 to 275 °C.
For `Cc1c(SCCCSc2nc3ccccc3[nH]2)ccnc1CSc1ccncc1`, the melting point lay in the range of 128 to 129 °C.
`CCCCCCCCCCOc1ccc(CO)cc1` yielded a melting point of 54 to 55 °C.
